Source: patent US7964625B2, “Antibiotics comprising bis(1-aryl-5-tetrazoly1)methane derivatives” (Nederlandse Organisatie Voor …, priority 2005, dated 2011)
Converted amounts (≈) assume the structure as drawn. Read-outs that look alike come from different tables or passages of the source.

What was measured:
S. aureus ATCC 29213 = experiment: MIC test, single strain S. aureus ATCC 29213; type: cell-based; conditions: for MIC: Staphylococcus aureus
Protocol: (§1) MIC test were performed according to standard methodology: M7-A6-“Methods for Dilution Antimicrobial Susceptibility Tests for Bacteria That Grow Aerobically”; Approved Standard, Sixth Edition Clinical and Laboratory Standards Institute 2005 (CLSI/formerly NCCLS).
(§2) Table II lists the results of 6 different compounds according to Formula (I) on single strains of S. aureus as MIC values expressed in micrograms per milliliter.
(§3) Table IV lists additional MIC data on single strains of S. aureus as MIC values expressed in micrograms per milliliter. Again BAS 00160352 (NewCo003) is tested, next to its monochloric pendant (NewCo0030) and several of the new compounds of Table I. Some of the experiments were carried out in duplicate. Strains TTC03.0236 and TTC03.0239 are two MRSA strains obtained from the Utrecht University Medical Centre (UMC 01-8756/140 and UMC 03-543155, respectively). Several of the new compounds of Table I appear to be at least as active as NewCo003.

S. aureus TTC03.0239 = experiment: MIC test, single strain S. aureus TTC03.0239 (MRSA); type: cell-based; conditions: Table IV, MRSA strain UMC 03-543155, some in duplicate
Protocol: as §1, §3

S. aureus TTC03.0236 = experiment: MIC test, single strain S. aureus TTC03.0236 (MRSA); type: cell-based; conditions: Table IV, MRSA strain UMC 01-8756/140, some in duplicate
Protocol: as §1, §3

S. aureus N315 = experiment: MIC test, single strain S. aureus N315; type: cell-based; conditions: for MIC S. aureus N315: Table II; for MIC: Staphylococcus aureus, N315, Table II
Protocol: as §1, §2

S. aureus strains = experiment: MIC test on multiple strains of S. aureus; type: cell-based; conditions: for Range MIC (highest): highest value found; for Range MIC (lowest): lowest value found
Protocol: as §1

S. aureus MW2 = experiment: MIC test, single strain S. aureus MW2; type: cell-based; conditions: for MIC S. aureus MW2: Table II; for MIC: Staphylococcus aureus, MW2, Table II
Protocol: as §1, §2

[1] = Observation for adverse side effects after i.v. injection in infected mice; type: in vivo; conditions: mouse, i.v., 0.05, 0.5 or 5.0 mg/kg in DMSO
Protocol: (§4) The test substances were administered as a solution in dimethylsulfoxide (DMSO). The test substance was administered as 20 μl injections per mouse at all dose levels. Vancomycin was used as positive control and injected intravenously as a 10 mg/ml solution in DMSO (20 μl per mouse). Fresh dilutions of the test substance in vehicle were provided, stored at 2-8° C., and used within 18 hours after preparation. Shortly before injection the test substance was warmed to room temperature.
(§5) The mice were injected i.m. with 22E05 MRSA 2141 bacteria, strain 2141 in the right thigh muscle, followed one day later by an i.v. injection of the test compound, vancomycin or vehicle in the tail vein. 24 hours later mice were sacrificed, blood was collected by heart puncture and the right thigh muscle was removed. Plasma was prepared from blood samples and stored at −80°±10° C. for possible future analysis. Thigh muscles were weighted and homogenized using an Ultra-Turrax® and dilutions of the homogenate were prepared in saline. Limiting dilutions were plated onto agar plates and two days later the number of MRSA 2141 CFU were determined for each individual mouse as an indication of bactericidal activity of the compound. […] In vivo antibiotic activity is determined by a CFU reduction of >90% (1 log reduction) in comparison to the negative control (vehicle only).

MRSA 2141 = experiment: Local thigh muscle infection with MRSA 2141 in the mouse, CFU outgrowth; type: in vivo; conditions: for Reduction of MRSA 2141 CFU in thigh muscle: 24 hours after dosing, vs vehicle
Protocol: The purpose of this study was to investigate the antibiotic efficacy of different doses of compound BAS00160352 (NewCo003) against a local infection with MRSA 2141 in the mouse. Thirty mice were treated intravenously with 0.05, 0.5 or 5.0 mg/kg body weight, respectively. Outgrowth of the infection was used to establish drug efficacy.
For each administered dose the appropriate stock solution was made as a 1 ml aliquot of the test substance in the vehicle (DMSO). The stock solutions were stored at 2-8° C. for 16 hours.
as §4
as §5, with “compound. Additionally, tests were performed to determine if the bacteria used are still oxacillin resistant Staphylococcus aureus. This was done before injection and on pooled thigh muscle isolates per group.” for “compound.”, “only). […]” for “only).”

[2] = ATCC29213, Table II, single strain, read-out: MIC S. aureus ATCC 29213
[3] = Staphylococcus aureus, 60 tested S. aureus strains, read-out: MIC 50
[4] = Staphylococcus aureus, 60 tested S. aureus strains, read-out: MIC 90

SMILES: Cc1ccc(-n2nnnc2C(Cl)c2nnnn2-c2ccc(C)cc2)cc1 [NewCo005, Bis-(1-p-tolyl-5-tetrazolyl)-chloromethane]
- MIC (S. aureus ATCC 29213; [2]): 4 µg/mL (≈ 10.9 µM)

SMILES: Clc1cccc(-n2nnnc2C(Cl)(Cl)c2nnnn2-c2cccc(Cl)c2Cl)c1Cl [NewCo0023, Bis-(1-o,m-dichlorobenzene-5-tetrazolyl)-dichloromethane]
- MIC S. aureus TTC03.0239 (S. aureus TTC03.0239): 0.39 micrograms per milliliter
- MIC S. aureus TTC03.0236 (S. aureus TTC03.0236): 0.19 micrograms per milliliter
- MIC S. aureus ATCC 29213 (S. aureus ATCC 29213; Table IV, some in duplicate): 0.19 micrograms per milliliter

SMILES: Fc1ccccc1-n1nnnc1C(Cl)(Cl)c1nnnn1-c1ccccc1F [NewCo0018, Bis-(1-o-fluorobenzene-5-tetrazolyl)-dichloromethane]
- MIC S. aureus TTC03.0236 (S. aureus TTC03.0236): 0.78 micrograms per milliliter
- MIC S. aureus ATCC 29213 (S. aureus ATCC 29213; Table IV, some in duplicate): 1.56 micrograms per milliliter

SMILES: Clc1ccc(-n2nnnc2C(Cl)(Cl)c2nnnn2-c2ccc(Cl)cc2)cc1 [NewCo001, Bis-(1-p-chlorobenzen-5-tetrazolyl)-dichloromethane]
- MIC S. aureus N315 (S. aureus N315): 2 micrograms per milliliter
- MIC50 (S. aureus strains; 60 tested S. aureus strains): 4 microgram/milliliter
- MIC90 (S. aureus strains; 60 tested S. aureus strains): 16 microgram/milliliter
- Range MIC (highest) (S. aureus strains; 60 tested S. aureus strains): >32 microgram/milliliter
- Range MIC (lowest) (S. aureus strains; 60 tested S. aureus strains): 1 microgram/milliliter
- MIC S. aureus ATCC 29213 (S. aureus ATCC 29213; Table II, single strain): 16 micrograms per milliliter
- MIC S. aureus MW2 (S. aureus MW2): 32 micrograms per milliliter

SMILES: Cc1ccccc1-n1nnnc1C(Cl)(Cl)c1nnnn1-c1ccccc1C [NewCo003, Bis-(1-o-tolyl-5-tetrazolyl)-dichloromethane]
- MIC (S. aureus N315): 0.125 µg/mL (≈ 0.312 µM)
- Signs of adverse side effects during observation after injection [1]: no signs of adverse side effects were observed
- Range MIC (highest) (S. aureus strains; 60 tested S. aureus strains): 0.5 microgram/milliliter
- Range MIC (lowest) (S. aureus strains; 60 tested S. aureus strains): 0.03 microgram/milliliter
- MIC50 (S. aureus strains; [3]): 0.06 µg/mL (≈ 0.15 µM)
- MIC90 (S. aureus strains; [4]): 0.12 µg/mL (≈ 0.299 µM)
- Trend of dose-dependent efficacy (MRSA 2141; i.v., 0.05 to 5.0 mg/kg): no significant trend of dose-dependent efficacy was observed
- Reduction of MRSA 2141 CFU in thigh muscle (MRSA 2141; single i.v. dose 0.05, 0.5 or 5.0 mg/kg one day after infection): Approximately 2 Log reduction
- MIC (S. aureus ATCC 29213; [2]): 0.06 µg/mL (≈ 0.15 µM)
- MIC (S. aureus ATCC 29213; ATCC29213, Table IV, some in duplicate, read-out: MIC S. aureus ATCC 29213): 0.19 µg/mL (≈ 0.474 µM)
- MIC S. aureus ATCC 29213 (S. aureus ATCC 29213; Table IV, some in duplicate): 0.1 micrograms per milliliter
- MIC (S. aureus MW2): 0.06 µg/mL (≈ 0.15 µM)

SMILES: Cc1ccc(-n2nnnc2C(Cl)(Cl)c2nnnn2-c2ccc(C)cc2)cc1 [NewCo002, Bis-(1-p-tolyl-5-tetrazolyl)-dichloromethane]
- MIC (S. aureus N315): 4 µg/mL (≈ 9.97 µM)
- Range MIC (highest) (S. aureus strains; 60 tested S. aureus strains): >32 microgram/milliliter
- Range MIC (lowest) (S. aureus strains; 60 tested S. aureus strains): 0.5 microgram/milliliter
- MIC50 (S. aureus strains; [3]): 32 µg/mL (≈ 79.7 µM)
- MIC90 (S. aureus strains; [4]): > 32 µg/mL
- MIC (S. aureus ATCC 29213; [2]): > 32 µg/mL
- MIC (S. aureus MW2): > 32 µg/mL

SMILES: ClC(Cl)(c1nnnn1-c1ccccc1)c1nnnn1-c1ccccc1 [NewCo004, Bis-(1-benzene-5-tetrazolyl)-dichloromethane]
- MIC S. aureus N315 (S. aureus N315): 0.25 micrograms per milliliter
- MIC50 (S. aureus strains; 60 tested S. aureus strains): 1 microgram/milliliter
- MIC90 (S. aureus strains; 60 tested S. aureus strains): 2 microgram/milliliter
- Range MIC (highest) (S. aureus strains; 60 tested S. aureus strains): 4 microgram/milliliter
- Range MIC (lowest) (S. aureus strains; 60 tested S. aureus strains): 0.25 microgram/milliliter
- MIC S. aureus ATCC 29213 (S. aureus ATCC 29213; Table II, single strain): 1 micrograms per milliliter
- MIC S. aureus MW2 (S. aureus MW2): 1 micrograms per milliliter

SMILES: COc1ccc(-n2nnnc2C(Cl)(Cl)c2nnnn2-c2ccc(OC)c(Cl)c2)cc1Cl [NewCo0021, Bis-(1-m-chloro-p-methoxybenzene-5-tetrazolyl)-dichloromethane]
- MIC S. aureus TTC03.0239 (S. aureus TTC03.0239): 1.56 micrograms per milliliter
- MIC S. aureus TTC03.0236 (S. aureus TTC03.0236): 0.78 micrograms per milliliter
- MIC S. aureus ATCC 29213 (S. aureus ATCC 29213; Table IV, some in duplicate): 1.56 micrograms per milliliter

SMILES: CN[C@H](CC(C)C)C(=O)N[C@H]1C(=O)N[C@@H](CC(N)=O)C(=O)N[C@H]2C(=O)N[C@H]3C(=O)N[C@H](C(=O)N[C@H](C(=O)O)c4cc(O)cc(O)c4-c4cc3ccc4O)[C@H](O)c3ccc(c(Cl)c3)Oc3cc2cc(c3O[C@@H]2O[C@H](CO)[C@@H](O)[C@H](O)[C@H]2O[C@H]2C[C@](C)(N)[C@H](O)[C@H](C)O2)Oc2ccc(cc2Cl)[C@H]1O [vancomycin, reference compound]
- Range MIC (highest) (S. aureus strains; 60 tested S. aureus strains): 4 microgram/milliliter
- Range MIC (lowest) (S. aureus strains; 60 tested S. aureus strains): 0.12 microgram/milliliter
- MIC50 (S. aureus strains; Staphylococcus aureus): 0.5 µg/mL (≈ 0.345 µM)
- MIC90 (S. aureus strains; Staphylococcus aureus): 1 µg/mL (≈ 0.69 µM)
- Reduction of MRSA 2141 CFU in thigh muscle (MRSA 2141; positive control, single i.v. dose 10 mg/kg): Over 1 Log reduction
- MIC (S. aureus ATCC 29213; ATCC29213, read-out: MIC S. aureus ATCC 29213, Table IV, some in duplicate): 1.56 µg/mL (≈ 1.08 µM)
- MIC S. aureus ATCC 29213 (S. aureus ATCC 29213; Table IV, some in duplicate, listed as vancomycine): 0.78 micrograms per milliliter

SMILES: COc1ccccc1-n1nnnc1C(Cl)(Cl)c1nnnn1-c1ccccc1OC [NewCo007, Bis-(1-o-methoxybenzene-5-tetrazolyl)-dichloromethane]
- MIC S. aureus TTC03.0239 (S. aureus TTC03.0239): 1.56 micrograms per milliliter
- MIC S. aureus TTC03.0236 (S. aureus TTC03.0236): 1.56 micrograms per milliliter
- MIC S. aureus ATCC 29213 (S. aureus ATCC 29213; Table IV, some in duplicate): 1.56 micrograms per milliliter

SMILES: COc1ccc(Cl)cc1-n1nnnc1C(Cl)(Cl)c1nnnn1-c1cc(Cl)ccc1OC [NewCo0022]
- MIC S. aureus TTC03.0239 (S. aureus TTC03.0239): 0.19 micrograms per milliliter
- MIC S. aureus TTC03.0236 (S. aureus TTC03.0236): 0.1 micrograms per milliliter
- MIC S. aureus ATCC 29213 (S. aureus ATCC 29213; Table IV, some in duplicate): ≦0.05 micrograms per milliliter

SMILES: COc1ccccc1-n1nnnc1C(Cl)(Cl)c1nnnn1-c1ccccc1OC [NewCo006, Bis-(1-o-methoxybenzene-5-tetrazolyl)-dichloromethane]
- MIC S. aureus ATCC 29213 (S. aureus ATCC 29213; Table II, single strain): 4 micrograms per milliliter
